From paper PMC3674352 (Cell Death & Disease, 2013)

Experiments:
Type in all cases: cell-based
Bcl-2 = Bcl-2 (Homo sapiens, UniProt P10415); test: growth of yeast co-expressing Bax and Bcl-2
Bcl-xL [1] = target: T1, Bcl-xL (Homo sapiens, UniProt Q07817); test: growth of yeast co-expressing Bax and Bcl-xL
Bcl-xL [2] = target: T1, Bcl-xL; test: growth and ATP content of yeast co-expressing Bax and Bcl-xL

T1 sequence (Q07812 whole entry): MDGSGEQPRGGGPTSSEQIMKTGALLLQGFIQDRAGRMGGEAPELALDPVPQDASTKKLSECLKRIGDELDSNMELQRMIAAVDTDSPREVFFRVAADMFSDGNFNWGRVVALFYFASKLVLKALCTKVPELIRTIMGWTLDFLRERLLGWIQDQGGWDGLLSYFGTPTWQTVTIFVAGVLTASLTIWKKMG
T1 sequence (Q07817 whole entry): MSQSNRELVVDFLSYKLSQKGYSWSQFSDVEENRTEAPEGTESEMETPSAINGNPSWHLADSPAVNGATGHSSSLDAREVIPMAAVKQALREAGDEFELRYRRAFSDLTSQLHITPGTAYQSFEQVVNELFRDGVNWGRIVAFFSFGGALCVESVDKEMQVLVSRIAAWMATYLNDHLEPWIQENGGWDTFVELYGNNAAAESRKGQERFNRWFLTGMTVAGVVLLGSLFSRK
Chain of Bcl-2 (Q07812 whole entry): as the sequence (Q07812 whole entry) above
Chain of Bcl-2 (P10415 whole entry): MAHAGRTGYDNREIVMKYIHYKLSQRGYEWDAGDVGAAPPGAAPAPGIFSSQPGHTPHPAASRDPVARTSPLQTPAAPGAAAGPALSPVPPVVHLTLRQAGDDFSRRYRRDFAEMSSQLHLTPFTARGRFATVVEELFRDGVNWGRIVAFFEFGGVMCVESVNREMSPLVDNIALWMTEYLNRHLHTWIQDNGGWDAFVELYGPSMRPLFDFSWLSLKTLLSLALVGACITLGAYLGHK

Row | SMILES | IC50 (Bcl-2) | IC50 (Bcl-xL [1]) | IC50 (Bcl-xL [2])
1 | CC1(C)CCC(c2ccc(Cl)cc2)=C(CN2CCN(c3ccc(C(=O)NS(=O)(=O)c4ccc(N[C@H](CCN5CCOCC5)CSc5ccccc5)c(S(=O)(=O)C(F)(F)F)c4)cc3)CC2)C1 [ABT-263] | ~ just over 1 μM | ~ just under 1 μM | 
2 | CN(C)CC[C@H](CSc1ccccc1)Nc1ccc(S(=O)(=O)NC(=O)c2ccc(N3CCN(Cc4ccccc4-c4ccc(Cl)cc4)CC3)cc2)cc1[N+](=O)[O-] [ABT-737] |  |  | ~ just under 1 μM
